The record followed here is publication PMC12040169 (PLOS Biology, 2025).

The viability is a read-out of living cells in per cent, often relative to untreated cells.

A short description of this series: in vitro. To be noted: human, hela cells, % viability.
For the molecule `O=C(O)c1cc(S(=O)(=O)Nc2ccc(F)cc2)c(Cl)cc1Cl` [CBK113685], the viability at 28.5 h, 10 µM was determined as 84.9%.
In the case of `O=C1CC2(CCN(C(=O)c3ccccn3)CC2)Oc2ccc(Br)cc21` [CBK156443] it was 93.7%; in that of `O=S(=O)(CC(F)(F)F)Nc1cccc(-c2nnn[nH]2)c1` [CBK154272], 83.9%.
On to `C=CCn1cc(CN2CCC(O)(c3ccccc3C)CC2)c(C)n1` [CBK282581], for which the viability at 28.5 h, 10 µM stood at 86.5%.
On to `COCCN1CCOC2(CCN(C(=O)c3ccc4ccccc4c3)CC2)C1c1ccccc1O` (stereo not drawn) [CBK116232], for which the viability at 28.5 h, 10 µM was found to be 107%.
In the case of `COc1ccc(CCC(=O)Nc2cccc(-c3ccc(OC4CCNCC4)cc3)c2)cc1OC` [CBK131925T], the viability at 28.5 h, 10 µM came out at 100%.
Turning to `CCc1cc(C(=O)N2CCCC(c3cc4ccccc4cn3)C2)on1` (stereo not drawn) [CBK285156], the viability at 28.5 h, 10 µM is 101%.
In the case of `O=C(O)c1cccc(NS(=O)(=O)Cc2ccccc2[N+](=O)[O-])c1` [CBK038906] it was 97.8%.
Regarding `O=C(Cn1ccc2ccnc(-c3cccs3)c21)N1CCOCC1` [CBK284729], the viability at 28.5 h, 10 µM is 94.2%.
As for `C=CCOC(=O)C1=C(C)N=C2SCCC(=O)N2C1c1ccc(SC)cc1` (stereo not drawn) [CBK073405], the figure is 93.5%; as for `CC[C@@H]1CCCCN1C(=O)c1ccc(Cl)c(C)c1` [CBK084565], 91.6%; as for `CC(=O)Nc1cccc(NC(=O)N(CCC#N)C2CCCCC2)c1` [CBK156367], 91.9%.
Regarding `O=C(CN1CCCC2(CCN(C(=O)c3ccoc3)C2)C1)Nc1ccc(F)c(Cl)c1` (stereo not drawn) [CBK132822], the viability at 28.5 h, 10 µM was 92.7%.
Turning to `O=C(O)c1ccc(CNC(=O)c2cnc(-c3ccc(F)cc3)c(-c3ccc(O)cc3)c2)cc1` [CBK037996], the viability at 28.5 h, 10 µM is 101%.
As to `COC(=O)CCn1c(=O)c2c(nc3oc(C)c(C)n32)n(C)c1=O` [CBK306033], the viability at 28.5 h, 10 µM was 109%.
Turning to `CN1CCN(S(=O)(=O)c2ccc(NC(=O)Cc3ccc([N+](=O)[O-])cc3)cc2)CC1` [CBK268161], the viability at 28.5 h, 10 µM stood at 121%.
Take `O=[N+]([O-])c1ccc(S(=O)(=O)NCCSCc2ccco2)cc1` [CBK267503]: the viability at 28.5 h, 10 µM came to 94.1%.
Take `COc1ncccc1-c1csc(C2CN3CCCC3CO2)n1` (stereo not drawn) [CBK304110]: the viability at 28.5 h, 10 µM was 83.5%.
In the case of `COc1ccc2[nH]c(=O)c(CNc3ccc(CCc4nc5ccccc5n4C)cc3)cc2c1` [CBK286162], the viability at 28.5 h, 10 µM was 87.9%.
In the case of `O=C(COc1ccc2ccccc2c1)Oc1ccc2ccccc2c1` [CBK264885], the viability at 28.5 h, 10 µM worked out at 110%.
Regarding `O=C1CC[C@@H](NCc2cccnc2)[C@H](c2cc(F)cc(F)c2)N1` [CBK283130], the viability at 28.5 h, 10 µM came out at 90.9%.
Regarding `O=C(NC1CC1)[C@@H]1C=CCN1S(=O)(=O)c1ccccc1Cl` [CBK285479], the viability at 28.5 h, 10 µM stood at 103%.
Turning to `CC(C)(N)CNC(=O)c1cc(C(C)(C)C)nn1Cc1ccc(Cl)cc1Cl` [CBK107296], the viability at 28.5 h, 10 µM is 95.6%.
`CCN(CC)C(=O)CNS(=O)(=O)Cc1ccccc1[N+](=O)[O-]` [CBK034504]: the viability at 28.5 h, 10 µM amounted to 94.3%.
Take `Cc1cc2n(n1)[C@@H](C(F)F)C[C@@H](C1CCCN(C(=O)C3CC3)C1)N2` (stereo partly drawn) [CBK284723]: the viability at 28.5 h, 10 µM worked out at 98.7%.
In the case of `Cc1ccc(Cl)cc1C(=O)N[C@H]1C[C@@H](c2nnc(CO)n2C2CC2)C1` [CBK306746], the viability at 28.5 h, 10 µM was determined as 92.8%.
Turning to `CCN(CC)C(=O)CN(CCc1ccc(OC)c(OC)c1)C(=O)NCc1cc(C)on1` [CBK160581], the viability at 28.5 h, 10 µM came out at 96.1%.
As for `Cc1csc(C(Cc2ccsc2)NC(=O)C2CCOC2)n1` (stereo not drawn) [CBK285150], the viability at 28.5 h, 10 µM was determined as 94.9%.
In the case of `COc1ncc(-c2ccc(N3CCN(c4ccncc4)CC3)nc2)c(OC)n1` [CBK036848], the viability at 28.5 h, 10 µM amounted to 99.1%.
Consider `Cn1ccnc1CNC(=O)N1CCCC(C(=O)c2cccc(Cl)c2)C1` (stereo not drawn) [CBK307479], for which the viability at 28.5 h, 10 µM is 105%.
Regarding `CC(C)(C)NC(=O)COc1ccc(CNc2ccc(C(=O)O)c(Cl)c2)cc1` [CBK287230], the viability at 28.5 h, 10 µM is 111%.
On to `OC(CN1CCN(C(c2ccccc2)c2ccccc2)CC1)Cn1c2ccccc2c2ccccc21` (stereo not drawn) [CBK262730], for which the viability at 28.5 h, 10 µM was 99.6%.
Consider `O=C(NCCO)C1(Cc2ccc(-c3ccccc3)cc2)CCNC1` (stereo not drawn) [CBK283043], for which the viability at 28.5 h, 10 µM came out at 83.9%.
For `CCOc1cc(NC2CCN(C(=O)C3CCCC3)C2)ncn1` (stereo not drawn) [CBK304137], the viability at 28.5 h, 10 µM came out at 106%.
As for `CN(C)CCn1c(C(=O)O)cc2ccccc21` [CBK268234C], the viability at 28.5 h, 10 µM was 110%.
In the case of `O=C(Nc1ccc2ncccc2c1)c1ccc(OC(F)(F)F)cc1` [CBK159815] it was 90.9%; in that of `Nc1nonc1-c1nc2ccccc2[nH]1` [CBK062657], 89.4%.
Consider `CCCN1CCC(CNC(=O)Cn2ccc3ccc(F)cc32)CC1` [CBK282573], for which the viability at 28.5 h, 10 µM was 88%.
Consider `O=C(O)CCN1C(=O)C(O)=C(C(=O)c2ccc(Cl)cc2)C1c1ccccc1[N+](=O)[O-]` (stereo not drawn) [CBK264553], for which the viability at 28.5 h, 10 µM is 98.8%.
`CCCCC(O)C[N+]1(C)CCC(c2ccccc2)CC1` (stereo not drawn) [CBK006696I]: the viability at 28.5 h, 10 µM was determined as 101%.
Regarding `CC(=O)c1csc(NC(=O)Cn2ccc3ccc(F)cc32)n1` [CBK282572], the viability at 28.5 h, 10 µM amounted to 90.5%.
Take `CC(C)C(NS(=O)(=O)c1ccc([N+](=O)[O-])cc1)C(C)C` [CBK267656]: the viability at 28.5 h, 10 µM came out at 94.8%.
In the case of `CNS(=O)(=O)c1cc(C(=O)O)c(OC)cc1OC` [CBK110325], the viability at 28.5 h, 10 µM turned out to be 84.6%.
As for `Cc1cc(C[C@@H]2CCC[C@H]2NCc2cccnc2)on1` [CBK284933], the figure is 97.1%.
Regarding `CN1CCCCCC1c1nc(-c2c[nH]c3ccccc23)nn1CCO` (stereo not drawn) [CBK306988], the viability at 28.5 h, 10 µM is 96%.
With `OCCn1ncc2c(NCc3nncn3-c3ccccc3)ncnc21` [CBK304608], the viability at 28.5 h, 10 µM stood at 98.5%.
For the molecule `COC(=O)[C@@H]1CN(C(=O)Nc2ccccc2)CCN1S(C)(=O)=O` [CBK289611], the viability at 28.5 h, 10 µM worked out at 96.9%.
In the case of `N#CCc1ccc(OC(=O)c2cccnc2)cc1` [CBK090304], the viability at 28.5 h, 10 µM stood at 105%.
With `c1ccc(OCCN2CCC(Oc3cncc(OCCN4CCOCC4)n3)C2)cc1` (stereo not drawn) [CBK084499], the viability at 28.5 h, 10 µM amounted to 113%.
Turning to `CCOC(=O)c1cnc(Nc2nc3ccccc3o2)nc1CSc1ncccn1` [CBK268885], the viability at 28.5 h, 10 µM is 103%.
Consider `O=C(O)C1(Oc2ccc3ncccc3c2)CCN(Cc2ccoc2)CC1` [CBK307598], for which the viability at 28.5 h, 10 µM was determined as 90.9%.
With `NC(=O)c1ccc(Nc2cc(N)ncn2)cc1` [CBK017969], the viability at 28.5 h, 10 µM was 94.1%.
As for `Cc1nc(S)nc(O)c1Cc1ccc(C(=O)O)o1` [CBK266284], the figure is 104%.
In the case of `CCOc1ccc2[nH]c(C(=O)NC3CCCN(C)C3)c(C)c2c1` (stereo not drawn) [CBK282530] it was 109%; in that of `C/C(=C1/SC(=S)N(CCC(=O)O)C1=O)c1ccc(O)cc1` [CBK265171], 102%.
Consider `CCOC(=O)C1=C(C)Nc2nc(C)nc(Cl)c2O1` [CBK021504], for which the viability at 28.5 h, 10 µM came to 103%.
As to `C#C[C@H]1C[N@@]2CC[C@H]1C[C@@H]2CNS(=O)(=O)c1cccc(C#N)c1` [CBK288753], the viability at 28.5 h, 10 µM came out at 106%.
